Laboratory results published in patent US12653776B2, “Methods of treatment of cancer by continuous infusion of coenzyme Q10” (priority 2013, dated 2026).

What was measured:
[1] = test system: acute myeloid leukemia (KG1) cells; assay: Acute myeloid leukemia (KG1) mouse model, survival; assay type: in vivo, mice
Protocol: Human acute erythro-leukemia (K562) and acute myeloid leukemia (KG1) cells (1×10^6) were injected intraperitoneally in immune-compromised mice. Engraftment was confirmed by complete blood counts, presence of anemia, and clinical assessment of animal behavior.
The mice (total n=120 for each model respectively) were randomized into four (n=30/group) treatment groups. Each treatment regimen was administered in a four week cycle with three weeks of treatment, one week off: • 1. Untreated (control) • 2. Coenzyme Q10 (4%, administered at 75 mg/kg, once/day by continuous infusion) • 3. Chemotherapy (cytarabine/AraC 25 mg/kg, 5×/week; and adriamycin/daunorubicin 5 mg/kg; 1×/wk) • 4. Coenzyme Q10 (4%, administered at 75 mg/kg, once/day by continuous infusion)+chemotherapy (cytarabine/AraC 25 mg/kg, 5×/week; and adriamycin/daunorubicin 5 mg/kg; 1×/wk)
All dosings were intravenous and followed a protocol of 3 week treatment followed by 1 week rest. Leukemia was monitored by pallor and blood smears, and hone marrow smears were performed post-mortem for analysis using Wright's stain. Survival results from the study of mice with acute erythroleukemia are show in FIG. 5. Day 1 is the first day of treatment with coenzyme Q10 and/or chemotherapy.

[2] = test system: liver chloromas (MIA C51 clone); assay: Liver chloroma rat model, survival; assay type: in vivo, rats
From the text: The effect of dosing schedule of coenzyme Q10 was also investigated in rats bearing liver or lung chloromas. Rats were transplanted with liver or lung clones of malignant chloromas derived from a stable myelogenous leukemia (chloroleukemia) cell line, MIA C51 (see. e.g., Jimenez and Yunis (1987) Science 238: 1278-1280). The clones have been selected to home to and form tumors in the liver or lungs, respectively. Rats were randomized to receive either no treatment, injection 3 times a day with 40 mg/mL (4%) coenzyme Q10, or continuous infusion of 40 mg/mL (4%) coenzyme Q10 via an implanted pump, to deliver for each regimen a total dose of 50 mg/kg body weight per day. […] For example, at Day 189 in the liver chloroma model, 45 of 50 rats were alive in the continuous infusion treatment group compared with 26 of 50 rats alive in the injection treatment group. All control animals were dead at Day 30.

solid tumors = assay: Phase 1 study, 144-hour (6 day) continuous infusion; assay type: in vivo, human; conditions: monotherapy and combination therapy
Protocol: A phase 1 clinical trial evaluating a 144-hour (6 day) continuous infusion of coenzyme Q10 for treatment of solid tumors is earned out. Coenzyme Q10 is administered as a monotherapy (Arm 1) or in combination with chemotherapy (Arm 2). […] The study is an open label, non-randomized dose-escalation study. The estimated enrollment is 45 patients for monotherapy (Arm 1), and up to 120 patients for combination therapy (Arm 2).
A dosing schedule of two 72-hour doses is used. For the first 72-hour dose, a loading dose over 1 hour is followed by infusion of the remainder of the dose over 71 hours at a lower rate. […]
A phase 1 clinical trial for treatment of solid tumors using coenzyme Q10 monotherapy and coenzyme Q10 in combination with chemotherapy is carried out. […] Dose limiting toxicities are assessed during Cycle 1.
Assessments of the antitumor activity of coenzyme Q10 are performed at the end of Cycle 2 and every 2 cycles thereafter using standard techniques such as computerized tomography (CT) or magnetic resonance imaging (MRI) for patients with measurable disease. Response is evaluated using Response Evaluation Criteria in Solid Tumors (RECIST) v1.1. […] Once a dose level of coenzyme Q10 monotherapy is evaluated and the CRC determines it safe to escalate to the next dose level, Cohort 1 of Treatment Arm 2 of coenzyme Q10 in combination with chemotherapy opens to accrual. […]

chloroleukemia (MIA C51) = conditions: IP

In the case of coenzyme Q10, the survival ([1]; coenzyme Q10 75 mg/kg/day continuous infusion + chemotherapy (cytarabine + daunorubicin) vs other groups incl. chemotherapy alone, p<0.00001) is reported as “significant increase in survival”, the survival ([1]; coenzyme Q10 alone (4%, 75 mg/kg once/day by continuous infusion) vs chemotherapy (cytarabine + daunorubicin)) is reported as “improved survival compared to chemotherapy” and the “survival compared to control” value ([2]; both continuous infusion and injection 3 times a day, 50 mg/kg per day) is reported as “significantly prolonged survival”. The “rats alive at Day 189” value ([2]; continuous infusion of 40 mg/mL (4%) coenzyme Q10, 50 mg/kg body weight per day) was 45 of 50, the “effectiveness of continuous infusion regimen” value ([2]; continuous infusion vs injection 3 times a day, 50 mg/kg per day) was “much more effective than the injection regimen” and the “rats alive at Day 189” value ([2]; injection 3 times a day of 40 mg/mL (4%) coenzyme Q10, total 50 mg/kg body weight per day) was 26 of 50. The “clinical and/or radiographic responses” value (solid tumors; at least some patients) was “Clinical and/or radiographic responses are seen”, the safety and tolerability (solid tumors; six day continuous infusion) was “safe and well tolerated” and the “survival in animals with metastasis to the lungs and liver” value (chloroleukemia (MIA C51); 50 mg/kg/day) was “significant increase in survival”. For the same substance, the “limb paralysis (paraplegia due to brain metastasis)” value (chloroleukemia (MIA C51); (St) mg/kg/day) was “complete resolution of limb paralysis”.
